This experiment has as its target T1, Axl (Homo sapiens, UniProt P30530).
T1 sequence (P30530 26-894): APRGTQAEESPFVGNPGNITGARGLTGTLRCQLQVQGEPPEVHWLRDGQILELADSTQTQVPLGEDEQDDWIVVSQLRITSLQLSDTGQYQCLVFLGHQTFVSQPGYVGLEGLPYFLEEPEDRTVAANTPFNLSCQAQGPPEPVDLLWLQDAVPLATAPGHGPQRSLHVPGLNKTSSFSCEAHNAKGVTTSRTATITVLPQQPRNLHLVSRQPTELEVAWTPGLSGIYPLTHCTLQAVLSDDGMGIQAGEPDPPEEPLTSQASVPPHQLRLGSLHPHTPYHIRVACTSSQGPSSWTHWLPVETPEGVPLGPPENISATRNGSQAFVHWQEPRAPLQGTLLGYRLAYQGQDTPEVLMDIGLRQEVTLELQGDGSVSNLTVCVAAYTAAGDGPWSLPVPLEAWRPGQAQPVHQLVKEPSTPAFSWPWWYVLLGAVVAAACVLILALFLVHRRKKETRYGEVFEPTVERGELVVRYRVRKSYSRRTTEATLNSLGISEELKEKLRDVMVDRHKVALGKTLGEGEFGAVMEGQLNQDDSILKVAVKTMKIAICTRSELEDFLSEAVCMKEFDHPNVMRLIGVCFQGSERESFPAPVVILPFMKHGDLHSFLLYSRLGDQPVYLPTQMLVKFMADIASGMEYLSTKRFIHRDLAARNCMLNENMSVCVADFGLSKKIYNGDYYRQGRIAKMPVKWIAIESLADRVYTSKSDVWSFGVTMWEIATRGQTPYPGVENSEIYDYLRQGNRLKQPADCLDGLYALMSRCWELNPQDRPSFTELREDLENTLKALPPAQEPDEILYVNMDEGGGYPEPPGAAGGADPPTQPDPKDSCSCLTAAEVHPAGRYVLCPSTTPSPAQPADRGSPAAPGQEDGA
Description: Axl NanoBRET intracellular kinase assay (intracellular binding, Cell Binding). Details: host or cells: HEK-293. The conditions noted are these: HEK-293 cells transfected with Axl-NanoLuc fusion vector; 0.35 μM K-5 NanoBRET tracer. In short, it runs like this: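 HEK-293 cells transiently transfected with Axl-NanoLuc fusion the day before were pre-incubated with compound for 1 h at 37 °C, 5% CO2 (0.5% DMSO), then with 0.35 μM K-5 NanoBRET tracer for 2 h. Tracer displacement was read as the 610/450 nm BRET ratio; IC50 from 4-parameter fit.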
Usually IC50 stands for the point on the concentration scale where inhibition reaches its midpoint. `CC1(N2CCc3ccc(-c4cnc5[nH]nc(-c6ccc(S(=O)(=O)C7CC7)cc6)c5c4)cc3CC2)CCCC1` [Example 120, 7-{3-[4-(Cyclopropanesulfonyl)phenyl]-1H-pyrazolo[3,4-b]pyridin-5-yl}-3-(1-methylcyclopentyl)-2,3,4,5-tetrahydro-1H-3-benzazepine] gave an IC50 of 100 to 1000 nM.

Consider `O=C1OCCN1c1ccc(-c2n[nH]c3ncc(-c4ccc5c(c4)CC[C@@H](N4C6COCC4C6)CC5)cc23)cc1` [Example 121, 3-(4-{5-[(7S)-7-{3-oxa-6-azabicyclo[3.1.1]heptan-6-yl}-6,7,8,9-tetrahydro-5H-benzo[7]annulen-2-yl]-2H-pyrazolo[3,4-b]pyridin-3-yl}phenyl)-1,3-oxazolidin-2-one], for which the half-maximal inhibitory concentration (IC50) is below 100 nM. For `O=C1CCCN1c1ccc(-c2n[nH]c3ncc(-c4ccc5c(c4)CC[C@@H](N4C6COCC4C6)CC5)cc23)cc1` [Example 122, 1-(4-{5-[(7S)-7-{3-oxa-6-azabicyclo[3.1.1]heptan-6-yl}-6,7,8,9-tetrahydro-5H-benzo[7]annulen-2-yl]-2H-pyrazolo[3,4-b]pyridin-3-yl}phenyl)pyrrolidin-2-one] the value was below 100 nM; for `COCCOc1ccc(-c2n[nH]c3ncc(-c4ccc5c(c4)CC[C@@H](N4C6COCC4C6)CC5)cc23)cc1` [Example 123, 6-[(7S)-2-{3-[4-(2-methoxyethoxy)phenyl]-2H-pyrazolo[3,4-b]pyridin-5-yl}-6,7,8,9-tetrahydro-5H-benzo[7]annulen-7-yl]-3-oxa-6-azabicyclo[3.1.1]heptane], below 100 nM. In the case of `CC(C)(C)S(=O)(=O)c1ccc(-c2n[nH]c3ncc(-c4ccc5c(c4)CC[C@@H](N4C6COCC4C6)CC5)cc23)cc1` [Example 124, 6-[(7S)-2-{3-[4-(2-methylpropane-2-sulfonyl)phenyl]-2H-pyrazolo[3,4-b]pyridin-5-yl}-6,7,8,9-tetrahydro-5H-benzo[7]annulen-7-yl]-3-oxa-6-azabicyclo[3.1.1]heptane], the IC50 is below 100 nM. In the case of `CN(C)C(=O)c1ccc(-c2n[nH]c3ncc(-c4ccc5c(c4)CC[C@@H](N4C6COCC4C6)CC5)cc23)cc1` [Example 125, N,N-Dimethyl-4-{5-[(7S)-7-{3-oxa-6-azabicyclo[3.1.1]heptan-6-yl}-6,7,8,9-tetrahydro-5H-benzo[7]annulen-2-yl]-2H-pyrazolo[3,4-b]pyridin-3-yl}benzamide] it was below 100 nM; in that of `c1cc2c(cc1-c1cnc3[nH]nc(-c4ccc(N5C[C@H]6C[C@@H]5CO6)cc4)c3c1)CC[C@@H](N1C3COCC1C3)CC2` [Example 126, (1R,4R)-5-(4-{5-[(7S)-7-{3-oxa-6-azabicyclo[3.1.1]heptan-6-yl}-6,7,8,9-tetrahydro-5H-benzo[7]annulen-2-yl]-2H-pyrazolo[3,4-b]pyridin-3-yl}phenyl)-2-oxa-5-azabicyclo[2.2.1]heptane], 100 to 1000 nM; in that of `FC1CN(c2ccc(-c3c[nH]c4ncc(-c5ccc6c(c5)CC[C@@H](N5C7COCC5C7)CC6)cc34)cc2)C1` [Example 127, 6-[(7S)-2-{3-[4-(3-fluoroazetidin-1-yl)phenyl]-1H-pyrrolo[2,3-b]pyridin-5-yl}-6,7,8,9-tetrahydro-5H-benzo[7]annulen-7-yl]-3-oxa-6-azabicyclo[3.1.1]heptane], below 100 nM.

For the origin of these results see US20240246967A1, “AXL COMPOUNDS” (ARCUS BIOSCIENCES, INC., priority 2021, published 2024).
